Assay [1] deals with T1, BRAF V600E (Homo sapiens, UniProt P15056, V600E).
T1 construct: expressed in transfected cells
Description: Cellular assay of target protein degradation, T-Rex 293 cells stably transfected with HA-BRAF_V600E (HA immunofluorescence, high content imaging). It is filed as cell-based. As to conditions: T-Rex 293 HA-BRAF V600E; for DC50: half maximal degradation, read-out: BRaf V600E DC50; for Dmax: maximum degradation observed. In short, it runs like this:
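24 h compound exposure, 1 μM–0.1 nM final, 0.1% DMSO, 37 °C; cells induced with 1 ng/mL doxycycline. PFA fix, Triton permeabilize, anti-HA overnight 4 °C, Hoechst/phalloidin counterstain. Output: DC50, Dmax as % control.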

For assay [2], the target named is T2, BRAF G466V (Homo sapiens, UniProt P15056, G466V).
T2 construct: expressed in transfected cells
Description: Cellular assay of target protein degradation, T-Rex 293 cells stably transfected with HA-BRAF G466V (HA immunofluorescence, high content imaging). It is filed as cell-based. To be noted: T-Rex 293 HA-BRAF G466V; for DC50: half maximal degradation, read-out: BRaf G466V DC50; for Dmax: maximum degradation observed. In short, it runs like this: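 24 h compound, 30 nM–3 pM final, 0.1% DMSO, 37° C; HA-BRAF G466V induced with 0.75 ng/mL doxycycline. PFA fix, Triton perm, anti-HA + Alexa fluor secondary, Hoechst/phalloidin counterstain; imaging. DC50, Dmax (% of control).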

The structures appear in SMILES notation.

T2 sequence (P15056 whole entry G466V): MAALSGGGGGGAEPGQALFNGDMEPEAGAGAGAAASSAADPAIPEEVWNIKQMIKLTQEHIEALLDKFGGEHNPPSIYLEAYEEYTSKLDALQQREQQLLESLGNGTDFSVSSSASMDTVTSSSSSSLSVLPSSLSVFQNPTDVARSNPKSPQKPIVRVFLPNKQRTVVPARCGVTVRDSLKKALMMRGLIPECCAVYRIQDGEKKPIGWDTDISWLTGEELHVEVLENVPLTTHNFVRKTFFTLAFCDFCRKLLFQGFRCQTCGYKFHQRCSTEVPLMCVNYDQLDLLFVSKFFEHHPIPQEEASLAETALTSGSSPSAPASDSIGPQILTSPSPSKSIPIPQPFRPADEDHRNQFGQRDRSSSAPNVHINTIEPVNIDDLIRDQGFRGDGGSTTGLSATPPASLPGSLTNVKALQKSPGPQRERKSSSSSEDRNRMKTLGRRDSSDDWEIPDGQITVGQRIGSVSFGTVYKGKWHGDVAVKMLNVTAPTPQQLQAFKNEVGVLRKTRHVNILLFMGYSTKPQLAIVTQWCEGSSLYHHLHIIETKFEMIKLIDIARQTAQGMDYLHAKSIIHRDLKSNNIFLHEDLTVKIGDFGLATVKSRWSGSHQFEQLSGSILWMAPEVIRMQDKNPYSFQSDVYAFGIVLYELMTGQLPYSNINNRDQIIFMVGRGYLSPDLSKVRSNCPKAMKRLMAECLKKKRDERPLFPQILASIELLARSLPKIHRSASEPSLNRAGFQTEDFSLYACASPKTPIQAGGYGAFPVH
T1 sequence (P15056 whole entry V600E): as the sequence (P15056 whole entry G466V) above, with V466G, V600E counted along it

As usually defined, the DC50 is the midpoint of the concentration-degradation curve. What is called Dmax is the greatest extent of degradation seen. Take `N#Cc1cc(-c2cnc3[nH]cc(C(=O)c4c(F)ccc(NS(=O)(=O)N5CC[C@@H](F)C5)c4F)c3c2)ccc1N1CCC(CN2CCC(c3ccc4c(c3)CN(C3CCC(=O)NC3=O)C4=O)CC2)CC1` (stereo partly drawn) [Compound 255, (3R)-N-[3-(5-{3-cyano-4-[4-({4-[2-(2,6-dioxopiperidin-3-yl)-1-oxo-2,3-dihydro-1H-isoindol-5-yl]piperidin-1-yl}methyl)piperidin-1-yl]phenyl}-1H-pyrrolo [2,3-b]pyridine-3-carbonyl)-2,4-difluorophenyl]-3-fluoropyrrolidine-1-sulfonamide]: the DC50 was 5 to 50 nM in assay [1] and below 1 nM in assay [2]. Further, the figures for the maximal degradation (Dmax) in assay [1] and in assay [2] were 35 to 70% and above 70%, respectively.
Take `COc1cc(-c2cnc3[nH]cc(C(=O)c4c(F)ccc(NS(=O)(=O)N5CC[C@@H](F)C5)c4F)c3c2)ccc1N1CCC(CN2CCC(c3ccc4c(c3)CN([C@H]3CCC(=O)NC3=O)C4=O)CC2)CC1` [Compound 256, (3R)-N-{3-[5-(4-{4-[(4-{2-[(3S)-2,6-dioxopiperidin-3-yl]-1-oxo-2,3-dihydro-1H-isoindol-5-yl}piperidin-1-yl)methyl]piperidin-1-yl}-3-methoxyphenyl)-1H-pyrrolo[2,3-b]pyridine-3-carbonyl]-2,4-difluorophenyl}-3-fluoropyrrolidine-1-sulfonamide]: in assay [1], the DC50 lay in the range of 5 to 50 nM and the maximal degradation (Dmax) lay within 35 to 70%. In assay [2], the DC50 was below 1 nM and the Dmax was above 70%.
Regarding `CNc1cc(-c2cnc3[nH]cc(C(=O)c4c(F)ccc(NS(=O)(=O)N5CC[C@@H](F)C5)c4F)c3c2)ccc1N1CCC(CN2CCC(c3ccc4c(c3)CN(C3CCC(=O)NC3=O)C4=O)CC2)CC1` (stereo partly drawn) [Compound 257, (3R)-N-[3-(5-{4-[4-({4-[2-(2,6-dioxopiperidin-3-yl)-1-oxo-2,3-dihydro-1H-isoindol-5-yl]piperidin-1-yl}methyl)piperidin-1-yl]-3-(methylamino)phenyl}-1H-pyrrolo[2,3-b]pyridine-3-carbonyl)-2,4-difluorophenyl]-3-fluoropyrrolidine-1-sulfonamide], in assay [1], the DC50 was 5 to 50 nM and the Dmax was 35 to 70%. For the same compound, in assay [2], the DC50 lay in the range of 1 to 10 nM and the Dmax was above 70%.
For `O=C1CC[C@H](N2Cc3cc(N4CCC(CN5CCC6(CCN(c7ccc(-c8cnc9[nH]cc(C(=O)c%10c(F)ccc(NS(=O)(=O)N%11CC[C@@H](F)C%11)c%10F)c9c8)cc7F)CC6)C5)CC4)ccc3C2=O)C(=O)N1` [Compound 258, (3R)-N-{3-[5-(4-{2-[(1-{2-[(3S)-2,6-dioxopiperidin-3-yl]-1-oxo-2,3-dihydro-1H-isoindol-5-yl}piperidin-4-yl)methyl]-2,8-diazaspiro[4.5]decan-8-yl}-3-fluorophenyl)-1H-pyrrolo[2,3-b]pyridine-3-carbonyl]-2,4-difluorophenyl}-3-fluoropyrrolidine-1-sulfonamide], in that order: below 5 nM, 35 to 70%, below 1 nM and 35 to 70%.
As for `O=C1CC[C@@H](N2Cc3cc(N4CCC(CN5CCC6(CCN(c7ccc(-c8cnc9[nH]cc(C(=O)c%10c(F)ccc(NS(=O)(=O)N%11CC[C@@H](F)C%11)c%10F)c9c8)cc7F)CC6)C5)CC4)ccc3C2=O)C(=O)N1` [Compound 259, (3R)-N-{3-[5-(4-{2-[(1-{2-[(3R)-2,6-dioxopiperidin-3-yl]-1-oxo-2,3-dihydro-1H-isoindol-5-yl}piperidin-4-yl)methyl]-2,8-diazaspiro[4.5]decan-8-yl}-3-fluorophenyl)-1H-pyrrolo[2,3-b]pyridine-3-carbonyl]-2,4-difluorophenyl}-3-fluoropyrrolidine-1-sulfonamide], in assay [1], the DC50 was below 5 nM and the Dmax fell in the range of 35 to 70%. Besides, in assay [2], the DC50 is below 1 nM and the maximal degradation (Dmax) lay in the range of 35 to 70%.
Consider `N#Cc1cc(-c2cnc3[nH]cc(C(=O)c4c(F)ccc(NS(=O)(=O)N5CC[C@@H](F)C5)c4F)c3c2)cc(C#N)c1N1CCC(CN2CCC(c3ccc4c(c3)CN([C@H]3CCC(=O)NC3=O)C4=O)CC2)CC1` [Compound 260, (3R)-N-{3-[5-(3,5-dicyano-4-{4-[(4-{2-[(3S)-2,6-dioxopiperidin-3-yl]-1-oxo-2,3-dihydro-1H-isoindol-5-yl}piperidin-1-yl)methyl]piperidin-1-yl}phenyl)-1H-pyrrolo [2,3-b]pyridine-3-carbonyl]-2,4-difluorophenyl}-3-fluoropyrrolidine-1-sulfonamide], for which the figures for the half-maximal degradation concentration (DC50) in assay [1] and in assay [2] were 5 to 50 nM and 1 to 10 nM, respectively. Moreover, the Dmax in assay [1] and in assay [2] was 35 to 70% in each case.
For `N#Cc1cc(-c2cnc3[nH]cc(C(=O)c4c(F)ccc(NS(=O)(=O)N5CC[C@@H](F)C5)c4F)c3c2)cc(C#N)c1N1CCC(CN2CCC(c3ccc4c(c3)CN(C3CCC(=O)NC3=O)C4=O)CC2)CC1` (stereo partly drawn) [Compound 261, (3R)-N-[3-(5-{3,5-dicyano-4-[4-({4-[2-(2,6-dioxopiperidin-3-yl)-1-oxo-2,3-dihydro-1H-isoindol-5-yl]piperidin-1-yl}methyl)piperidin-1-yl]phenyl}-1H-pyrrolo [2,3-b]pyridine-3-carbonyl)-2,4-difluorophenyl]-3-fluoropyrrolidine-1-sulfonamide], in assay [1], the DC50 is 5 to 50 nM and the Dmax was in the range of 35 to 70%. Further, in assay [2], the DC50 was in the range of 1 to 10 nM and the Dmax was above 70%.
Taken in the same sequence, the figures for `C[C@H]1CC[C@H](C)N1S(=O)(=O)Nc1ccc(F)c(C(=O)c2c[nH]c3ncc(-c4ccc(N5CCC(CN6CCC(c7ccc8c(c7)CN([C@H]7CCC(=O)NC7=O)C8=O)CC6)CC5)cc4)cc23)c1F` [Compound 262, (2S,5S)-N-{3-[5-(4-{4-[(4-{2-[(3S)-2,6-dioxopiperidin-3-yl]-1-oxo-2,3-dihydro-1H-isoindol-5-yl}piperidin-1-yl)methyl]piperidin-1-yl}phenyl)-1H-pyrrolo [2,3-b]pyridine-3-carbonyl]-2,4-difluorophenyl}-2,5-dimethylpyrrolidine-1-sulfonamide] were 5 to 50 nM, below 35%, 1 to 10 nM and 35 to 70%.
Taken in the same sequence, the figures for `C[C@H]1CC[C@H](C)N1S(=O)(=O)Nc1ccc(F)c(C(=O)c2c[nH]c3ncc(-c4ccc(N5CCC(CN6CCC(c7ccc8c(c7)CN(C7CCC(=O)NC7=O)C8=O)CC6)CC5)cc4)cc23)c1F` (stereo partly drawn) [Compound 263, (2S,5S)-N-[3-(5-{4-[4-({4-[2-(2,6-dioxopiperidin-3-yl)-1-oxo-2,3-dihydro-1H-isoindol-5-yl]piperidin-1-yl}methyl)piperidin-1-yl]phenyl}-1H-pyrrolo[2,3-b]pyridine-3-carbonyl)-2,4-difluorophenyl]-2,5-dimethylpyrrolidine-1-sulfonamide] were 50 to 500 nM, below 35%, 1 to 10 nM and 35 to 70%.
For `C[C@H]1CCCN1S(=O)(=O)Nc1ccc(F)c(C(=O)c2c[nH]c3ncc(-c4ccc(N5CCC(CN6CCC(c7ccc8c(c7)CN(C7CCC(=O)NC7=O)C8=O)CC6)CC5)cc4)cc23)c1F` (stereo partly drawn) [Compound 264, (2S)-N-[3-(5-{4-[4-({4-[2-(2,6-dioxopiperidin-3-yl)-1-oxo-2,3-dihydro-1H-isoindol-5-yl]piperidin-1-yl}methyl)piperidin-1-yl]phenyl}-1H-pyrrolo[2,3-b]pyridine-3-carbonyl)-2,4-difluorophenyl]-2-methylpyrrolidine-1-sulfonamide], in that order: 5 to 50 nM, 35 to 70%, 1 to 10 nM and 35 to 70%.
On to `CCc1ccc(NS(=O)(=O)N2CC[C@@H](F)C2)c(F)c1C(=O)c1c[nH]c2ncc(-c3ccc(N4CCC(CN5CCC(c6ccc7c(c6)CN([C@H]6CCC(=O)NC6=O)C7=O)CC5)CC4)cc3)cc12` [Compound 265, (3R)-N-{3-[5-(4-{4-[(4-{2-[(3S)-2,6-dioxopiperidin-3-yl]-1-oxo-2,3-dihydro-1H-isoindol-5-yl}piperidin-1-yl)methyl]piperidin-1-yl}phenyl)-1H-pyrrolo [2,3-b]pyridine-3-carbonyl]-4-ethyl-2-fluorophenyl}-3-fluoropyrrolidine-1-sulfonamide], for which the DC50 was above 500 nM in assay [1] and above 30 nM in assay [2].
For `CCc1ccc(NS(=O)(=O)N2CC[C@@H](F)C2)c(F)c1C(=O)c1c[nH]c2ncc(-c3ccc(N4CCC(CN5CCC(c6ccc7c(c6)CN(C6CCC(=O)NC6=O)C7=O)CC5)CC4)cc3)cc12` (stereo partly drawn) [Compound 266, (3R)-N-[3-(5-{4-[4-({4-[2-(2,6-dioxopiperidin-3-yl)-1-oxo-2,3-dihydro-1H-isoindol-5-yl]piperidin-1-yl}methyl)piperidin-1-yl]phenyl}-1H-pyrrolo[2,3-b]pyridine-3-carbonyl)-4-ethyl-2-fluorophenyl]-3-fluoropyrrolidine-1-sulfonamide], in that order: above 500 nM and above 30 nM.
`O=C1CC[C@H](N2Cc3cc(C4CCN(CC5CCN(c6ccc(-c7cnc8[nH]cc(C(=O)c9c(Cl)ccc(NS(=O)(=O)N%10CC[C@@H](F)C%10)c9Cl)c8c7)cc6)CC5)CC4)ccc3C2=O)C(=O)N1` [Compound 267, (3R)-N-{2,4-dichloro-3-[5-(4-{4-[(4-{2-[(3S)-2,6-dioxopiperidin-3-yl]-1-oxo-2,3-dihydro-1H-isoindol-5-yl}piperidin-1-yl)methyl]piperidin-1-yl}phenyl)-1H-pyrrolo [2,3-b]pyridine-3-carbonyl]phenyl}-3-fluoropyrrolidine-1-sulfonamide]: in assay [1], the DC50 fell in the range of 5 to 50 nM and the Dmax was in the range of 35 to 70%. In addition, in assay [2], the half-maximal degradation concentration (DC50) was in the range of 1 to 10 nM and the Dmax lay in the range of 35 to 70%.

Values taken from US12180193B2, “Accelerating fibrosarcoma protein degrading compounds and associated methods of use” (Arvinas Operations, Inc., priority 2020, dated 2024).
